Results taken from patent publication US11007270B2, “Polymer-semaxanib moiety conjugates” (Nektar Therapeutics, priority 2010, dated 2021).

Key:
VEGFR-2 = VEGFR-2 (Homo sapiens, UniProt P35968); experiment: VEGFR-2 kinase inhibition, Caliper screening (fluorescent substrate phosphorylation, electrophoretic separation); details: for VEGFR-2 Fold: fold of IC50 relative to sunitinib
c-Kit = c-Kit (Homo sapiens, UniProt P10721); experiment: c-Kit tyrosine kinase inhibition, Caliper screening (fluorescent substrate phosphorylation, electrophoretic separation); format: biochemical; details: for IC50: averages of replicate wells; for c-Kit Fold: fold of IC50 relative to sunitinib
Sequence of c-Kit (P10721 26-976): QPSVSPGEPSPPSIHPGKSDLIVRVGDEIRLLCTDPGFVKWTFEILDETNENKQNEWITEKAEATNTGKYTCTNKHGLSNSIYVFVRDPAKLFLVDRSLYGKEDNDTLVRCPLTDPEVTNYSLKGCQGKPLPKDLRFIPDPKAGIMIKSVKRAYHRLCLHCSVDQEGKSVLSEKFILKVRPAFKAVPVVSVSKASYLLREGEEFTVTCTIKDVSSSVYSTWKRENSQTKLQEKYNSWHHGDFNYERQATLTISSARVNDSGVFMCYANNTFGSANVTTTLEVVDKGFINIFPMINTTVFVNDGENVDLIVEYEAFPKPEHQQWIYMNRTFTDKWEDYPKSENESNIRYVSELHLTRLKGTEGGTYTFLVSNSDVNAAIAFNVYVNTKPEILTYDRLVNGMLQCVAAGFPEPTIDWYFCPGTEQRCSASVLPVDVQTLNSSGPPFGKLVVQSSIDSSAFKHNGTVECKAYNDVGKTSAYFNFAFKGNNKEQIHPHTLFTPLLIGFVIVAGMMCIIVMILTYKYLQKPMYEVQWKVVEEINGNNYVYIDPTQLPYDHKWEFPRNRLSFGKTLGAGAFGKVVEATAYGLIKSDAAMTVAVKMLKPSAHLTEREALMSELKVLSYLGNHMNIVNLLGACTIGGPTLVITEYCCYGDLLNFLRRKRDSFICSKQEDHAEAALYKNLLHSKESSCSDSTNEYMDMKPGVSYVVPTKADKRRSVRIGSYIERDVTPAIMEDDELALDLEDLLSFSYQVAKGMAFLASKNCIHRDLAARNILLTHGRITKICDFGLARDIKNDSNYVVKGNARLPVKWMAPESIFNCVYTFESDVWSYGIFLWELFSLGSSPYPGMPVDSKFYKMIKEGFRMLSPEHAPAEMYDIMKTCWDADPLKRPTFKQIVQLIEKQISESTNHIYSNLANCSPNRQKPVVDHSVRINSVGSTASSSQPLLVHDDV

RET = RET (Homo sapiens, UniProt P07949); experiment: RET kinase inhibition, Caliper screening (fluorescent substrate phosphorylation, electrophoretic separation); details: for RET Fold: fold of IC50 relative to sunitinib
Sequence of RET (P07949 29-1114, species assumed): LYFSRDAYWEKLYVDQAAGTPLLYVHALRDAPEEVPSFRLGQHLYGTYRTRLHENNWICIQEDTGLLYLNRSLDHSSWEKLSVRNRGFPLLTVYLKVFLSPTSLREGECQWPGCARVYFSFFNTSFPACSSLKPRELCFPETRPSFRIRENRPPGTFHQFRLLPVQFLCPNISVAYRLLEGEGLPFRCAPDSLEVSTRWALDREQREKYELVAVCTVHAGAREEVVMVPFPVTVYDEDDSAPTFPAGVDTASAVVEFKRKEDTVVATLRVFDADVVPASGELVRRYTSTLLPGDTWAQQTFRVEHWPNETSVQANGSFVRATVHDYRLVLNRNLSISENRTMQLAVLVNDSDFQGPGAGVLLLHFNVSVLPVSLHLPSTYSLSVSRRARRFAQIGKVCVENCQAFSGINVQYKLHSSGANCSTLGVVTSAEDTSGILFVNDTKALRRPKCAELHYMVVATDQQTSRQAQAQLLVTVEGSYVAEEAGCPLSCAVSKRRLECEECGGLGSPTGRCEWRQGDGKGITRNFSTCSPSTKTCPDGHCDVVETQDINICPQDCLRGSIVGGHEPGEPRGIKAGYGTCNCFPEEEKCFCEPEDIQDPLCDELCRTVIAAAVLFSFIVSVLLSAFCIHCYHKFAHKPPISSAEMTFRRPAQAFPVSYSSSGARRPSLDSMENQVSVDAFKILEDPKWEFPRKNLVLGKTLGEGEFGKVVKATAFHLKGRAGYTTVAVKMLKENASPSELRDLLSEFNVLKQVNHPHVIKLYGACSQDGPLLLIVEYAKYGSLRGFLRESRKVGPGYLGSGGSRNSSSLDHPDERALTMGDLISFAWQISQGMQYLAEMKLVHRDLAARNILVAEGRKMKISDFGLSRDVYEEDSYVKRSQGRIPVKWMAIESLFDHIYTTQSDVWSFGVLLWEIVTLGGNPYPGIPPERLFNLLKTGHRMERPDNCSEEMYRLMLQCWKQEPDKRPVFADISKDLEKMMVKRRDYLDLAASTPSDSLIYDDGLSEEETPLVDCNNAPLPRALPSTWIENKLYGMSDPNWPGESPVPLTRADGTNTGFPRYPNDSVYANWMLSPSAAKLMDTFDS

[1] = concentration 1.0E−05 (unit not given)
[2] = concentration 1.0E−06 (unit not given)
[3] = concentration 1.0E−07 (unit not given)
[4] = concentration 1.0E−08 (unit not given)
[5] = concentration 1.0E−09 (unit not given)
[6] = concentration 1.0E−10 (unit not given)
[7] = concentration 3.0E−05 (unit not given)
[8] = concentration 3.0E−06 (unit not given)
[9] = concentration 3.0E−07 (unit not given)
[10] = concentration 3.0E−08 (unit not given)
[11] = concentration 3.0E−09 (unit not given)
[12] = concentration 3.0E−10 (unit not given)

Sequence of VEGFR-2 (P35968 20-1356, species assumed): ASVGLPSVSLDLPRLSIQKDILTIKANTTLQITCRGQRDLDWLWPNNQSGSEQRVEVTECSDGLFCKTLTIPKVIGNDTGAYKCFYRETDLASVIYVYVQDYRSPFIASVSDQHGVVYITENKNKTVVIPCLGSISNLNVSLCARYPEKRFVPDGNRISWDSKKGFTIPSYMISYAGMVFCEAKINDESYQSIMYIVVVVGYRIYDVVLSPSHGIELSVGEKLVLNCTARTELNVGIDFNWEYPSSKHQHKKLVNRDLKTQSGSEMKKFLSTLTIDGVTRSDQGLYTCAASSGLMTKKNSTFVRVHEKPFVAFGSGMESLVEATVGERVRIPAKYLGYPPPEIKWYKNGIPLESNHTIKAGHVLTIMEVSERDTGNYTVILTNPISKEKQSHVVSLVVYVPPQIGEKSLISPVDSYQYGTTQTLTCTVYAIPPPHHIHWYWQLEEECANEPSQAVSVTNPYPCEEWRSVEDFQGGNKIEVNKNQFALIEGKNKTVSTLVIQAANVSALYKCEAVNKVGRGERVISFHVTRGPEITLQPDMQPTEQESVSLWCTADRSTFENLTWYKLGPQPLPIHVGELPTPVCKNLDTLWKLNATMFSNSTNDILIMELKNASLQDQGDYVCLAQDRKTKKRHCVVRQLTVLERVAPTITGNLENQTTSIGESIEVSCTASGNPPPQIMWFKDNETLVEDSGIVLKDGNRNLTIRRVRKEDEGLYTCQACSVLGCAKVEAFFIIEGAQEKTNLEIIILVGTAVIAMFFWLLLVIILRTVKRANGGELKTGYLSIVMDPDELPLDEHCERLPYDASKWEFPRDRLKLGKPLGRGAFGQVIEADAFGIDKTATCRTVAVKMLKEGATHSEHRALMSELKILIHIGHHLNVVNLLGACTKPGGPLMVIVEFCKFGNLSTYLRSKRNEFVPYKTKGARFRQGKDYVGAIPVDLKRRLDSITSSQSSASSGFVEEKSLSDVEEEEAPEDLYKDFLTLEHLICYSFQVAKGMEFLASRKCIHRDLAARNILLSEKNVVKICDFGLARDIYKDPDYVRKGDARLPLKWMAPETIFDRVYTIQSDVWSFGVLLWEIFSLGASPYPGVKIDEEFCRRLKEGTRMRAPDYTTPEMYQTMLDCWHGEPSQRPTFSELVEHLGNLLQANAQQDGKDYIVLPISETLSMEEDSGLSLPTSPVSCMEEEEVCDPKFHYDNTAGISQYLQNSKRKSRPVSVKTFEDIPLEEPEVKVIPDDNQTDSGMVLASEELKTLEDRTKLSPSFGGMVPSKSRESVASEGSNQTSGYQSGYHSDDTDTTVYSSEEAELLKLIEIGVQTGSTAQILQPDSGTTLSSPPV

With `COCCOCCOCCOCCOCCOCCOCCOCCNC(=O)c1c(C)[nH]c(/C=C2\C(=O)Nc3ccc(F)cc32)c1C` [mPEG8-semaxanib, (Z)-5-((5-fluoro-2-oxoindolin-3-ylidene)methyl)-2,4-dimethyl-1H-pyrrole-3-mPEG8-amide] the IC50 (VEGFR-2) was 430 nM, the “VEGFR-2 AVG % Activity at Specific Concentration” value (from here on “VEGFR-2 AVG % Activity”) (VEGFR-2; [1]) was −3% and the “VEGFR-2 AVG % Activity” value (VEGFR-2; [2]) was 24%. For the same compound, the “VEGFR-2 AVG % Activity” value (VEGFR-2; [3]) was 73%, the “VEGFR-2 AVG % Activity” value (VEGFR-2; [4]) was 85% and the “VEGFR-2 AVG % Activity” value (VEGFR-2; [5]) was 86%. The “VEGFR-2 AVG % Activity” value (VEGFR-2; [6]) was 86%, the “VEGFR-2 AVG % Activity” value (VEGFR-2; [7]) was −6% and the “VEGFR-2 AVG % Activity” value (VEGFR-2; [8]) was 2%. For the same compound, the “VEGFR-2 AVG % Activity” value (VEGFR-2; [9]) was 50%, the “VEGFR-2 AVG % Activity” value (VEGFR-2; [10]) was 78% and the “VEGFR-2 AVG % Activity” value (VEGFR-2; [11]) was 82%. The “VEGFR-2 AVG % Activity” value (VEGFR-2; [12]) was 84%, the “VEGFR-2 Fold” value (VEGFR-2) was 8.78 and the IC50 (c-Kit) was 300 nM. For the same compound, the “c-Kit AVG % Activity at Specific Concentration” value (“c-Kit AVG % Activity” below) (c-Kit; [1]) was −1%, the “c-Kit AVG % Activity” value (c-Kit; [2]) was 11% and the “c-Kit AVG % Activity” value (c-Kit; [3]) was 75%. The “c-Kit AVG % Activity” value (c-Kit; [4]) was 97%, the “c-Kit AVG % Activity” value (c-Kit; [5]) was 98% and the “c-Kit AVG % Activity” value (c-Kit; [6]) was 94%. For the same compound, the “c-Kit AVG % Activity” value (c-Kit; [7]) was −1%, the “c-Kit AVG % Activity” value (c-Kit; [8]) was 1% and the “c-Kit AVG % Activity” value (c-Kit; [9]) was 49%. The “c-Kit AVG % Activity” value (c-Kit; [10]) was 93%, the “c-Kit AVG % Activity” value (c-Kit; [11]) was 98% and the “c-Kit AVG % Activity” value (c-Kit; [12]) was 94%. The “c-Kit Fold” value (c-Kit) was 4.10, the IC50 (RET) was 990 nM and the “RET AVG % Activity at Specific Concentration” value (“RET AVG % Activity” for short) (RET; [1]) was 5%. For the same compound, the “RET AVG % Activity” value (RET; [2]) was 52%, the “RET AVG % Activity” value (RET; [3]) was 92% and the “RET AVG % Activity” value (RET; [4]) was 100%. For the same compound, the “RET AVG % Activity” value (RET; [5]) was 102%, the “RET AVG % Activity” value (RET; [6]) was 100% and the “RET AVG % Activity” value (RET; [7]) was 0%. For the same compound, the “RET AVG % Activity” value (RET; [8]) was 20%, the “RET AVG % Activity” value (RET; [9]) was 75% and the “RET AVG % Activity” value (RET; [10]) was 94%. The “RET AVG % Activity” value (RET; [11]) was 97%, the “RET AVG % Activity” value (RET; [12]) was 99% and the “RET Fold” value (RET) was 23.02.
`COCCOCCOCCOCCNC(=O)c1c(C)[nH]c(/C=C2\C(=O)Nc3ccc(F)cc32)c1C` [mPEG4-semaxanib, (Z)-5-((5-fluoro-2-oxoindolin-3-ylidene)methyl)-2,4-dimethyl-1H-pyrrole-3-mPEG4-amide] was tested, and the IC50 (VEGFR-2) was 180 nM, the “VEGFR-2 AVG % Activity” value (VEGFR-2; [1]) was −4% and the “VEGFR-2 AVG % Activity” value (VEGFR-2; [2]) was 12%. The “VEGFR-2 AVG % Activity” value (VEGFR-2; [3]) was 56%, the “VEGFR-2 AVG % Activity” value (VEGFR-2; [4]) was 88% and the “VEGFR-2 AVG % Activity” value (VEGFR-2; [5]) was 92%. For the same compound, the “VEGFR-2 AVG % Activity” value (VEGFR-2; [6]) was 86%, the “VEGFR-2 AVG % Activity” value (VEGFR-2; [7]) was −6% and the “VEGFR-2 AVG % Activity” value (VEGFR-2; [8]) was −4%. For the same compound, the “VEGFR-2 AVG % Activity” value (VEGFR-2; [9]) was 35%, the “VEGFR-2 AVG % Activity” value (VEGFR-2; [10]) was 89% and the “VEGFR-2 AVG % Activity” value (VEGFR-2; [11]) was 96%. The “VEGFR-2 AVG % Activity” value (VEGFR-2; [12]) was 97%, the “VEGFR-2 Fold” value (VEGFR-2) was 3.67 and the IC50 (c-Kit) was 170 nM. For the same compound, the “c-Kit AVG % Activity” value (c-Kit; [1]) was −1%, the “c-Kit AVG % Activity” value (c-Kit; [2]) was 3% and the “c-Kit AVG % Activity” value (c-Kit; [3]) was 70%. The “c-Kit AVG % Activity” value (c-Kit; [4]) was 97%, the “c-Kit AVG % Activity” value (c-Kit; [5]) was 99% and the “c-Kit AVG % Activity” value (c-Kit; [6]) was 97%. The “c-Kit AVG % Activity” value (c-Kit; [7]) was −1%, the “c-Kit AVG % Activity” value (c-Kit; [8]) was −1% and the “c-Kit AVG % Activity” value (c-Kit; [9]) was 24%. For the same compound, the “c-Kit AVG % Activity” value (c-Kit; [10]) was 94%, the “c-Kit AVG % Activity” value (c-Kit; [11]) was 93% and the “c-Kit AVG % Activity” value (c-Kit; [12]) was 100%. The “c-Kit Fold” value (c-Kit) was 2.30, the IC50 (RET) was 350 nM and the “RET AVG % Activity” value (RET; [1]) was 0%. The “RET AVG % Activity” value (RET; [2]) was 22%, the “RET AVG % Activity” value (RET; [3]) was 78% and the “RET AVG % Activity” value (RET; [4]) was 99%. For the same compound, the “RET AVG % Activity” value (RET; [5]) was 89%, the “RET AVG % Activity” value (RET; [6]) was 100% and the “RET AVG % Activity” value (RET; [7]) was −1%. The “RET AVG % Activity” value (RET; [8]) was 5%, the “RET AVG % Activity” value (RET; [9]) was 52% and the “RET AVG % Activity” value (RET; [10]) was 95%. The “RET AVG % Activity” value (RET; [11]) was 100%, the “RET AVG % Activity” value (RET; [12]) was 99% and the “RET Fold” value (RET) was 8.14.
